# Laboratory results as given in patent US9820943B2, “Micronized amoxicillin” (DSM SINOCHEM PHARMACEUTICALS NETHERLANDS B.V., priority 2013, dated 2017).
# Columns and labels:
# Type in all cases: physicochemical
# [1] = Contact angle by sessile drop method (water); details: ambient conditions, trihydrate
# Protocol: Contact angles of amoxicillin trihydrate powder samples were measured by the sessile drop method using an Drop Shape Analyzer instrument (FTA 1000, First Ten Angstrom, Virginia, USA). Powder samples were mounted on double sided adhesive tape adhered to a glass slide and excess powder was removed by tapping the slide. A drop of probe liquid (water) was dispersed onto the sample surface and video images were captured by the FTA image analyzer. The contact angle was calculated by the instrument by fitting a mathematical expression to the shape of the drop followed by calculating the slope of the tangent to the drop at the liquid-solid-vapor interface line. The surface tension of ultrapure ELGA laboratory water was measured to be 73±0.5 mN·m^−1 at 25° C. All measurements were performed in air under ambient conditions and an average of four measurements was reported in the below Examples.
# (§1) Parameters operated were: • Augar Speed: 5-90 rpm • Primary Air Pressure: 2-8 kg·cm^−2 • Secondary Air Pressure: 4-10 kg·cm^−2 The surface area (in triplicate), average particle size and contact angle (in quadruplicate) were determined as outlined in the General section. The purity of the amoxicillin trihydrate samples was 99.4±0.3% and were void of dichloromethane, isopropanol, pivalic acid and triethyl amine.
# [2] = Powder dissolution, USP/NF paddle method with HPLC analysis; details: 500 mg in 900 mL water, 37 °C, 75 rpm; for Amoxicillin released in solution Mean: mean of 3; for Amoxicillin released in solution #1: replicate #1; for Amoxicillin released in solution #2: replicate #2; for Amoxicillin released in solution #3: replicate #3
# Protocol: Dissolution analysis of amoxicillin trihydrate powder samples was carried out using the USP/NF paddle method at a rotational speed of 75 rpm. Ultrapure ELGA laboratory water (900 mL) was used as dissolution medium. Media were equilibrated to 37.0±0.5° C. prior to dissolution. Amoxicillin trihydrate sample powder (500 mg) was directly added to the dissolution apparatus (Electrolab USP-24, India). Samples were collected at 0, 1, 3, 5, 10, 15, 30, 60 and 90 min, filtered through 0.2 μm filters and analyzed by HPLC. Dissolution profiles were constructed by plotting the percentage amoxicillin released against time.
# The HPLC system (Shimadzu Corporation, Kyoto, Japan) comprised of an SCL-10A VP system controller, LC-10AT VP liquid chromatograph, FCV-10AL VP flow control valve, DGU-14A degasser, SIL-10AD VP auto-injector, CTO-10AS VP column oven, SPD-M20A prominence diode array (PDA) detector and data acquisition Class-VP 6.10 software. The HPLC method was adopted from the United States Pharmacopoeia (USP). The method was validated for linearity, precision, accuracy and intra- and inter-day variability. The mobile phase was 50 mM monobasic potassium phosphate:methanol (96:4, v/v, pH 5.0). All analyses were carried out using Lichrospher® 100 RP-18e analytical column (5 μm, Merck KGaA, Darmstadt, Germany) under isocratic conditions at a flow rate of 1.0 mL·min^−1 at 25° C. with 20 μL injection volume. Effluent was monitored at a wavelength of 230 nm. Samples for calibration curve generation were prepared in 50 mM monobasic potassium phosphate:methanol 1:1 (v/v) proportion at a concentration range of 1 to 600 μg·mL^−1.
# The three non-micronized (i.e. entries 1-3 of Table 1) and micronized (i.e. entries 4-6 of Table 1) amoxicillin trihydrate samples of Example 1 were subjected to a powder dissolution test (in triplicate) as outlined in the General section.
# [3] = Particle size distribution by laser diffraction (Malvern); details: trihydrate
# Protocol: Particle size distribution values D10, D50, D90 and D100 were determined using laser diffraction applying Malvern equipment. A suitable apparatus for determining D10, D50, D90 and D100 is a Malvern particle sizer 2600 C or a Malvern Zeta Sizer.
# as §1
# [4] = Specific powder surface area by nitrogen gas sorption (BET); details: triplicate, trihydrate
# Protocol: Specific powder surface area was determined using nitrogen gas sorption (Smartsorb, Smart Instruments, Mumbai, India). Prior to measurements, samples were regenerated by degassing to remove moisture and contamination. The regenerated sample was dipped in liquid nitrogen and the quantity of the adsorbed gas was measured using a thermal conductivity detector and subsequently integrated using an electronic circuit in terms of counts. The instrument was calibrated by injecting a known quantity of nitrogen. The measured parameters were subsequently used to calculate the surface area of the sample by employing the adsorption theories of Brunauer, Emmett and Teller (BET).
# as §1
smiles,measurement,setting,value
"CC1(C)S[C@@H]2[C@H](NC(=O)[C@H](N)c3ccc(O)cc3)C(=O)N2[C@H]1C(=O)O.O.O.O [entry 1, amoxicillin trihydrate]",Contact Angle Mean ± SD (n = 4),[1],75.50 ± 2.95
same,Amoxicillin released in solution Mean,[2]; 0 min,0%
same,Amoxicillin released in solution #1,[2]; 0 min,0%
same,Amoxicillin released in solution #2,[2]; 0 min,0%
same,Amoxicillin released in solution #3,[2]; 0 min,0%
same,Amoxicillin released in solution Mean,"[2]; 1 min, trihydrate",85.98%
same,Amoxicillin released in solution #1,"[2]; 1 min, trihydrate",84.65%
same,Amoxicillin released in solution #2,"[2]; 1 min, trihydrate",86.65%
same,Amoxicillin released in solution #3,"[2]; 1 min, trihydrate",86.65%
same,Amoxicillin released in solution Mean,"[2]; 3 min, trihydrate",99.25%
same,Amoxicillin released in solution #1,"[2]; 3 min, trihydrate",99.74%
same,Amoxicillin released in solution #2,"[2]; 3 min, trihydrate",99.01%
same,Amoxicillin released in solution #3,"[2]; 3 min, trihydrate",99.01%
same,Amoxicillin released in solution Mean,"[2]; 5 min, trihydrate",99.51%
same,Amoxicillin released in solution #1,"[2]; 5 min, trihydrate",99.44%
same,Amoxicillin released in solution #2,"[2]; 5 min, trihydrate",99.54%
same,Amoxicillin released in solution #3,"[2]; 5 min, trihydrate",99.54%
same,Amoxicillin released in solution Mean,"[2]; 10 min, trihydrate",99.14%
same,Amoxicillin released in solution #1,"[2]; 10 min, trihydrate",98.65%
same,Amoxicillin released in solution #2,"[2]; 10 min, trihydrate",99.04%
same,Amoxicillin released in solution #3,"[2]; 10 min, trihydrate",99.73%
same,Amoxicillin released in solution Mean,"[2]; 15 min, trihydrate",99.12%
same,Amoxicillin released in solution #1,"[2]; 15 min, trihydrate",99.28%
same,Amoxicillin released in solution #2,"[2]; 15 min, trihydrate",98.69%
same,Amoxicillin released in solution #3,"[2]; 15 min, trihydrate",99.38%
same,Amoxicillin released in solution Mean,"[2]; 30 min, trihydrate",99.31%
same,Amoxicillin released in solution #1,"[2]; 30 min, trihydrate",99.50%
same,Amoxicillin released in solution #2,"[2]; 30 min, trihydrate",99.56%
same,Amoxicillin released in solution #3,"[2]; 30 min, trihydrate",98.87%
same,Amoxicillin released in solution Mean,"[2]; 60 min, trihydrate",99.25%
same,Amoxicillin released in solution #1,"[2]; 60 min, trihydrate",99.56%
same,Amoxicillin released in solution #2,"[2]; 60 min, trihydrate",99.10%
same,Amoxicillin released in solution #3,"[2]; 60 min, trihydrate",99.10%
same,Amoxicillin released in solution Mean,"[2]; 90 min, trihydrate",99.76%
same,Amoxicillin released in solution #1,"[2]; 90 min, trihydrate",99.93%
same,Amoxicillin released in solution #2,"[2]; 90 min, trihydrate",99.61%
same,Amoxicillin released in solution #3,"[2]; 90 min, trihydrate",99.74%
same,Average Particle Size D10,[3],12.3 μm
same,Average Particle Size D50,[3],39.8 μm
same,Average Particle Size D90,[3],93.3 μm
same,Average Particle Size D100,[3],275.9 μm
same,Surface Area Mean ± SD (n = 3),[4],0.58 ± 0.09 m^2 · g^−1
"CC1(C)S[C@@H]2[C@H](NC(=O)[C@H](N)c3ccc(O)cc3)C(=O)N2[C@H]1C(=O)O.O.O.O [entry 2, amoxicillin trihydrate]",Contact Angle Mean ± SD (n = 4),[1],67.70 ± 1.39
same,Amoxicillin released in solution Mean,[2]; 0 min,0%
same,Amoxicillin released in solution #1,[2]; 0 min,0%
same,Amoxicillin released in solution #2,[2]; 0 min,0%
same,Amoxicillin released in solution #3,[2]; 0 min,0%
same,Amoxicillin released in solution Mean,"[2]; 1 min, trihydrate",61.71%
same,Amoxicillin released in solution #1,"[2]; 1 min, trihydrate",61.68%
same,Amoxicillin released in solution #2,"[2]; 1 min, trihydrate",61.21%
same,Amoxicillin released in solution #3,"[2]; 1 min, trihydrate",62.23%
same,Amoxicillin released in solution Mean,"[2]; 3 min, trihydrate",99.69%
same,Amoxicillin released in solution #1,"[2]; 3 min, trihydrate",99.58%
same,Amoxicillin released in solution #2,"[2]; 3 min, trihydrate",99.88%
same,Amoxicillin released in solution #3,"[2]; 3 min, trihydrate",99.60%
same,Amoxicillin released in solution Mean,"[2]; 5 min, trihydrate",98.99%
same,Amoxicillin released in solution #1,"[2]; 5 min, trihydrate",99.89%
same,Amoxicillin released in solution #2,"[2]; 5 min, trihydrate",99.79%
same,Amoxicillin released in solution #3,"[2]; 5 min, trihydrate",97.29%
same,Amoxicillin released in solution Mean,"[2]; 10 min, trihydrate",99.66%
same,Amoxicillin released in solution #1,"[2]; 10 min, trihydrate",99.66%
same,Amoxicillin released in solution #2,"[2]; 10 min, trihydrate",98.95%
same,Amoxicillin released in solution #3,"[2]; 10 min, trihydrate",100.36%
same,Amoxicillin released in solution Mean,"[2]; 15 min, trihydrate",99.43%
same,Amoxicillin released in solution #1,"[2]; 15 min, trihydrate",99.51%
same,Amoxicillin released in solution #2,"[2]; 15 min, trihydrate",98.98%
same,Amoxicillin released in solution #3,"[2]; 15 min, trihydrate",99.80%
same,Amoxicillin released in solution Mean,"[2]; 30 min, trihydrate",99.33%
same,Amoxicillin released in solution #1,"[2]; 30 min, trihydrate",99.65%
same,Amoxicillin released in solution #2,"[2]; 30 min, trihydrate",99.00%
same,Amoxicillin released in solution #3,"[2]; 30 min, trihydrate",99.34%
same,Amoxicillin released in solution Mean,"[2]; 60 min, trihydrate",99.45%
same,Amoxicillin released in solution #1,"[2]; 60 min, trihydrate",99.56%
same,Amoxicillin released in solution #2,"[2]; 60 min, trihydrate",99.17%
same,Amoxicillin released in solution #3,"[2]; 60 min, trihydrate",99.60%
same,Amoxicillin released in solution Mean,"[2]; 90 min, trihydrate",99.15%
same,Amoxicillin released in solution #1,"[2]; 90 min, trihydrate",99.24%
same,Amoxicillin released in solution #2,"[2]; 90 min, trihydrate",99.24%
same,Amoxicillin released in solution #3,"[2]; 90 min, trihydrate",98.96%
same,Average Particle Size D10,[3],13.5 μm
same,Average Particle Size D50,[3],40.6 μm
same,Average Particle Size D90,[3],94.3 μm
same,Average Particle Size D100,[3],237.5 μm
same,Surface Area Mean ± SD (n = 3),[4],0.69 ± 0.03 m^2 · g^−1
